Results: patent publication US20250163070A1, “SPIRO COMPOUND AND APPLICATION THEREOF” (HITGEN INC., priority 2022, published 2025)

Tests used:
CRBN/DDB1 protein [1] = target: T1, CRBN/DDB1 protein (Homo sapiens (Human), UniProt Q96SW2); assay: Inhibition of CRBN/DDB1 protein activity, fluorescence resonance energy transfer (FRET) method with FITC-labeled thalidomide analog; assay type: binding; conditions: 5.0 nM CRBN/DDB1, 50.0 nM FITC-labeled thalidomide analog, 25° C., pH 7.0
Source text: Experiment 1 Detection of Compounds Inhibition of CRBN/DDB1 Protein Activity (Using a Fluorescence Resonance Energy Transfer (FRET) Method)
Microplate reader (BMG PHERAstar FSX), ECHO (LABCYTE Echo 665), microplate thermostatic oscillator (Hangzhou Ruicheng Instrument Co., Ltd.), disodium hydrogen phosphate (Sigma-Aldrich (Shanghai) Trading Co., Ltd.), sodium dihydrogen phosphate (Sigma-Aldrich (Shanghai) Trading Co., Ltd.), bovine serum albumin (Sigma-Aldrich (Shanghai) Trading Co., Ltd.), Anti-6His-Tb crypate Gold (Cisbio Bioassays Company CISBIO), CRBN/DDB1 protein (HitGen Inc.), 384-well plate (Grenier Bio-one (Shanghai) Co., Ltd.).
The compound powders were dissolved in DMSO and serially diluted using ECHO. The resulting dilutions were individually added to 384-well reaction plates, ensuring that the final concentration of DMSO in the entire reaction system (10.0 μL) was 1.0%. An equal volume of DMSO was added as a control.
The CRBN/DDB1 protein was diluted to twice the required final concentration (5.0 nM) by addition of 20 mM disodium hydrogen phosphate, 20 mM sodium dihydrogen phosphate, 0.08% bovine serum albumin and a buffer with pH 7.0. […] The Anti-6His-Tb crypate Gold and FITC-labeled thalidomide analog were diluted to twice the required final concentration by addition of 20 mM disodium hydrogen phosphate, 20 mM sodium dihydrogen phosphate, 0.08% bovine serum albumin and the buffer with pH 7.0. The final concentration of Anti-6His-Tb crypate Gold was 0.2 nM, and the final concentration of the FITC-labeled thalidomide analog was 50.0 nM, so as to obtain a mixture of Anti-6His-Tb crypate Gold/FITC-labeled thalidomide analog. 5.0 μL of the mixture of Anti-6His-Tb crypate Gold/FITC-labeled thalidomide analog was individually added to the 384-well reaction plates, followed by centrifugation at 1000 rpm for 1 min. Then the reaction plates were incubated in the microplate thermostatic oscillator at 25° C. and 250 rpm for 30 min. After the reaction was completed, the fluorescence signal values in the 384-well reaction plates were read using the microplate reader (Ex=337 nm, Em=520/490 nm).
A solvent group (containing 5.0 nM CRBN/DDB1, 0.2 nM Anti-6His-Tb crypate Gold, 50.0 nM FITC-labeled thalidomide analog and 1.0% DMSO) was used as a negative control. A reaction buffer group (containing 0.2 nM Anti-6His-Tb crypate Gold, 50.0 nM FITC-labeled thalidomide analog and 1.0% DMSO) was used as the blank control.
The residual activity percentage at each concentration was calculated using the following formula: […]
A dose-effect curve was fitted using GraphPad 6.0 to calculate the IC50 value.

CRBN/DDB1 protein [2] = target: T1, CRBN/DDB1 protein; assay: Isothermal titration calorimetry (ITC) detection of compound binding to CRBN/DDB1; conditions: 25° C., pH 7.0, 10 μM protein, 100 μM compound, one set of sites model
Protocol: Experiment 2 Isothermal Titration Calorimetry (ITC) Detection of Compound Binding to CRBN/DDB1
6.1 mL of 200 mM disodium hydrogen phosphate aqueous solution and 3.9 mL of 200 mM sodium dihydrogen phosphate aqueous solution were mixed to obtain 200 mM PB buffer (pH 7.0). Then, 5397 μL of deionized water was mixed with 600 μL of 200 mM PB buffer and 3 μL of 10% Tween 20 aqueous solution to prepare a detection buffer with a pH of 7.0.
The protein storage solution was subjected to buffer exchange using the detection buffer prepared above according to the instruction of the Zeba™ Spin Desalting Columns (Thermo Fisher Scientific Inc., #89882). After the exchange was completed, ultraviolet (UV) absorption of the protein solution at OD280nm was measured using the microplate reader (BMG LABTECH Inc., PHERAstar FSX), and the concentration was calculated. Based on the measured concentration, the protein was diluted to 10 μM with the detection buffer, and added with DMSO to a final concentration of 1%, resulting in a total volume of 300 μL. After a brief centrifugation at room temperature, the solution was collected for later use.
The compound powder was dissolved in DMSO and diluted to 100 μM with the detection buffer prepared above. The DMSO concentration was adjusted to a final concentration of 1% with a total volume of 100 μL. […]

T1 sequence (Q96SW2 whole entry, species assumed): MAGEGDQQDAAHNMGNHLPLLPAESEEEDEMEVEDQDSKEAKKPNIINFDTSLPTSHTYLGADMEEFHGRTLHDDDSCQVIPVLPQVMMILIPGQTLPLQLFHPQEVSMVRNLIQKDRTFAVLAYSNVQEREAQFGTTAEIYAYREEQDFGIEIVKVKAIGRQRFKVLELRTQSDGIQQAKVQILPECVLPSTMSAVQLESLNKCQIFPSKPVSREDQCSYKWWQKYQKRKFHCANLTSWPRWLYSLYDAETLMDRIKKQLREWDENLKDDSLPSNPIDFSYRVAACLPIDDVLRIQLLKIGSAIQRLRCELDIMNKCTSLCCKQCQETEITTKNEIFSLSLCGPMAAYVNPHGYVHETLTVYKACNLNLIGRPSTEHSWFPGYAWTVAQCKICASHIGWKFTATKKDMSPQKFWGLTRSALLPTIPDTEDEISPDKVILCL
T1 sequence (Q16531 whole entry partner, species assumed): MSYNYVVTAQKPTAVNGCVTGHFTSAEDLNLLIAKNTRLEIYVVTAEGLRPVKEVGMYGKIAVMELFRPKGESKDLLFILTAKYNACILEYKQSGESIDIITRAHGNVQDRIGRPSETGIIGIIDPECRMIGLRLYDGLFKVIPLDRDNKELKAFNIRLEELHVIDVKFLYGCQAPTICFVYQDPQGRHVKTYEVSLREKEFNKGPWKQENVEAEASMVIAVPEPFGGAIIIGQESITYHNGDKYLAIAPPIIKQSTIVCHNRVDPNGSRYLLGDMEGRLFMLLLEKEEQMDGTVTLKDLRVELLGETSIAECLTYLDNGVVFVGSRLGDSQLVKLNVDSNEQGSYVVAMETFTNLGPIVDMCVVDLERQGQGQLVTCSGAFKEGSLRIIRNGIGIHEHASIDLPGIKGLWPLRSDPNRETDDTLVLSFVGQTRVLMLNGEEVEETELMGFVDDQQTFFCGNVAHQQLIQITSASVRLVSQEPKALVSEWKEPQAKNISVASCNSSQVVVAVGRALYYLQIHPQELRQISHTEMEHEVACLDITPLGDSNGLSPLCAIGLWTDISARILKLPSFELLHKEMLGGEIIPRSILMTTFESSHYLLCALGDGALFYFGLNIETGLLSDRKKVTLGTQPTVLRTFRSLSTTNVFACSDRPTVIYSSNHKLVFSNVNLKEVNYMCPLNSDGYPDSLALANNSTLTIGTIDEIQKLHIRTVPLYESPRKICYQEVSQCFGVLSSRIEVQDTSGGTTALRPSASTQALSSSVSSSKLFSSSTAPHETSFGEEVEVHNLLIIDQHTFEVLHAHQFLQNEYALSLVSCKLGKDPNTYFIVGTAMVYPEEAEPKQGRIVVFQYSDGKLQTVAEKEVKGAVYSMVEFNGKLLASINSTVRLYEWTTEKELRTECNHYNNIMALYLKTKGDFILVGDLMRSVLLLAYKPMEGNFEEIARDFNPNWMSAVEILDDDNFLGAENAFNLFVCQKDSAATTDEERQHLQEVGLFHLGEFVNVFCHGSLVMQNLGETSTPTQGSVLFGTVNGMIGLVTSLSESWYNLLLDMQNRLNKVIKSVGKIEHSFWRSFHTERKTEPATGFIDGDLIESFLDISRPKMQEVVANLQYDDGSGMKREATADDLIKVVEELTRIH

Row | SMILES | IC50 (CRBN/DDB1 protein [1]) [µM] | Kd (CRBN/DDB1 protein [2]) [µM]
1 | O=C1CC2(CN(C(=O)c3cc4ccccc4s3)C2)C(=O)N1 [Compound A12] | 1 to 10 | 
2 | CN(C)C(=O)c1[nH]c2ccccc2c1C(=O)N1CC2(CC(=O)NC2=O)C1 [Compound A3] | < 0.1 | 0.015
3 | CC(=O)N1CCN(C(=O)c2sc3ccccc3c2C(=O)N2CC3(CC(=O)NC3=O)C2)CC1 [Compound A11] | < 0.1 | 
4 | CN(C)C(=O)c1c(C(=O)N2CC3(CC(=O)NC3=O)C2)sc2ccccc12 [Compound A2] | 0.1 to 1 | 
5 | CN(C)C(=O)c1[nH]c2ccccc2c1CN1CC2(CC(=O)NC2=O)C1 [Compound A17] | 100 to 200 | 
6 | CN(C)C(=O)c1sccc1C(=O)N1CC2(CC(=O)NC2=O)C1 [Compound A15] | 1 to 10 | 
7 | CN(C)C(=O)c1cccc(C(=O)N2CC3(CC(=O)NC3=O)C2)c1 [Compound A5] | 1 to 10 | 
8 | NC(=O)c1sc2ccccc2c1C(=O)N1CC2(CC(=O)NC2=O)C1 [Compound A10] | 0.1 to 1 | 
9 | O=C1CC2(CN(C(=O)c3c(C(=O)NC4CCCCC4)sc4ccccc34)C2)C(=O)N1 [Compound A7] | < 0.1 | 
10 | COC(=O)c1ccccc1C(=O)N1CC2(CC(=O)NC2=O)C1 [Compound A14] | 0.1 to 1 | 
11 | CN(C)C(=O)c1cscc1C(=O)N1CC2(CC(=O)NC2=O)C1 [Compound A6] | 0.1 to 1 | 
12 | O=C1CC2(CN(C(=O)c3c(C(=O)N4CC5(COC5)C4)sc4ccccc34)C2)C(=O)N1 [Compound A9] | < 0.1 | 
13 | O=C1CC2(CN(C(=O)c3csc4ccccc34)C2)C(=O)N1 [Compound A13] | 1 to 10 | 
14 | CN(C)C(=O)c1ccc(C(=O)N2CC3(CC(=O)NC3=O)C2)cc1 [Compound A4] | 1 to 10 | 
15 | O=C1CC2(CN(C(=O)c3c(C(=O)N4CCNCC4)sc4ccccc34)C2)C(=O)N1 [Compound A8] | < 0.1 | 
16 | CN(C)C(=O)c1c(C(=O)N2CC3(CC(=O)NC3=O)C2)c2ccccc2n1C [Compound A19] | < 0.1 | 
